The structures appear in SMILES notation. A value given as a limit tells only on which side of the number the result lay.

What all share (assay type): cell-based
One experiment concerns NCIH460 cells. As to the kind of experiment: Anti-cancer screen (MTT), NCIH460 cells. Particulars: Homo sapiens, NCI-H460, NCIH460, 48 hours, concentrations tested 0.01-100 μM; for CC50: read-out: LC50 (the source's name). Here is the method: (§1) Experimental drugs are screened for anti-cancer activity in three cell lines for their GI50, TGI and LC50 values (using five concentrations for each compound). The cell lines are maintained in DMEM containing 10% fetal bovine serum. 96 well micro titer plates are inoculated with cells in 100 μL for 24 hours at 37° C., 5% CO2, 95% air and 100% relative humidity. 5000 HCT116 cells/well, 5000 NCIH460 cells/well and 5000 U251 cells/well are plated. A separate plate with these cell lines is also inoculated to determine cell viability before the addition of the compounds (T0), (See Table I).
(§2) Following 24-hours incubation, experimental drugs are added to the 96 well plates. Each plate contains one of the above cell lines and the following in triplicate: five different concentrations (0.01, 0.1, 1, 10 and 100 μM) of four different compounds, appropriate dilutions of a cytotoxic standard and control (untreated) wells. Compounds are dissolved in DMSO to make 20 mM stock solutions on the day of drug addition and frozen at −20° C. Serial dilutions of these 20 mM stock solutions are made in complete growth medium such that 100 μL of these drug solutions in medium, of final concentrations equaling 0.01, 0.1, 1, 10 and 100 μM can be added to the cells in triplicate. Standard drugs whose anti-cancer activity has been well documented and which are regularly used are Doxorubicin and SAHA, (See Table I).
(§3) For T0 measurement, 24 hours after seeding the cells, 10 μL of 3-(4,5-Dimethyl-2-thiazolyl)-2,5-diphenyl-2H-tetrazolium (MTT) solution per well is added and incubation carried out for 3 hours at 37° C., 5% CO2, 95% air and 100% relative humidity, protected from light. Cells incubated with compounds for 48 hours are treated similarly except with the addition of 20 μL MTT solution per well and a subsequent incubation under the same conditions. After 3 hours of MTT incubation, well contents are aspirated carefully followed by addition of 150 μL DMSO per well. Plates are agitated to ensure solution of the formazan crystals in DMSO and absorbance read at 570 nm, (See Table I).
(§4) Percent growth is calculated for each compound's concentration relative to the control and zero measurement wells (T0; viability right before compound addition). If a test well's O.D. value is greater than the T0 measurement for that cell line % Growth=(test−zero)/(control−zero)×100

A further experiment relates to HCT116 cells. Put plainly: Anti-cancer screen (MTT), HCT116 cells. Particulars: Homo sapiens, HCT-116, HCT116, 48 hours, concentrations tested 0.01-100 μM. On the procedure: as §1, §2, §3, §4
The next experiment relates to MDAMB-231/U 251. As to the kind of experiment: Anti-cancer screen (MTT), MDAMB-231/U 251 cells. The conditions noted are these: MDAMB-231/U 251, 48 hours, concentrations tested 0.01-100 μM; for CC50: read-out: LC50 (the source's name). Here is the method:
as §1, §2, §3, §4

Experiment [1] relates to NCIH460, HCT116, MDAMB-231/U 251. As to the kind of experiment: Anti-cancer screen, mean GI50 over the cell lines. On the procedure: as §1, §2, §3, §4

In the case of `OC(COc1cccc2[nH]c3ccccc3c12)CN1CCNCC1` (stereo not drawn) [Example 3, 1-(9H-carbazol-4-yloxy)-3-piperazin-1-ylpropan-2-ol], in the experiment with NCIH460 cells, halving of growth (GI50) required 27 µM, the IC (TGI) is 54 µM and the CC50 is 80 µM. In the experiment on HCT116 cells, this compound yielded a GI50 of 7 µM, an IC (TGI) of 36 µM and an LC50 (concentration for 50% net cell kill relative to T0) of 72 µM. In the experiment on MDAMB-231/U 251, the GI50 is 55 µM, the IC (TGI) turned out to be 77 µM and the CC50 was > 100 µM. This compound came in with a GI50 in experiment [1] of 29.7 µM.

As for `OC(COc1cccc2[nH]c3ccccc3c12)CN1CCc2sccc2C1` (stereo not drawn) [Example 4, 1-(9H-carbazol-4-yloxy)-3-(6,7-dihydrothieno[3,2-c]pyridin-5(4H)-yl)propan-2-ol], in the experiment on NCIH460 cells, the GI50 was 18 µM, the IC (TGI) amounted to 47 µM and the CC50 turned out to be 80 µM. In the experiment on HCT116 cells, this compound yielded a 50% growth inhibitory concentration (GI50) of 32 µM, an IC (TGI) of 57 µM and an LC50 (concentration for 50% net cell kill relative to T0) of 82 µM. In the experiment on MDAMB-231/U 251, growth was halved (GI50) at 34 µM, the IC (TGI) is 59 µM and the CC50 was 84 µM. Moreover, growth in experiment [1] was halved (GI50) at 28 µM.

Take `OC(COc1cccc2[nH]c3ccccc3c12)CN1CCCC1` (stereo not drawn) [Example 6, 1-(9H-carbazol-4-yloxy)-3-pyrrolidin-1-ylpropan-2-ol]: the GI50 in the experiment with NCIH460 cells was 10 µM; with HCT116 cells, > 100 µM; in the experiment on MDAMB-231/U 251, > 100 µM; in experiment [1], 10.5 µM. For the same compound, the IC (TGI) in the experiment on NCIH460 cells was 42 µM; with HCT116 cells it was > 100 µM; with MDAMB-231/U 251, > 100 µM. Also, the CC50 was 75 µM with NCIH460 cells and > 100 µM with MDAMB-231/U 251. Besides, the LC50 (concentration for 50% net cell kill relative to T0) with HCT116 cells is > 100 µM.

On to `COc1cc(NCC(O)COc2cccc3[nH]c4ccccc4c23)cc(OC)c1OC` (stereo not drawn) [Example 8], for which, in the experiment with NCIH460 cells, halving of growth (GI50) required 15 µM, the IC (TGI) was determined as 45 µM and the CC50 was 75 µM. In the experiment on HCT116 cells, this compound registered a concentration for 50% growth inhibition (GI50) of 5.8 µM, an IC (TGI) of 22 µM and an LC50 (concentration for 50% net cell kill relative to T0) of 90 µM. In the experiment with MDAMB-231/U 251, the GI50 worked out at 5 µM, the IC (TGI) amounted to 50 µM and the CC50 was > 100 µM. In experiment [1], this compound returned a GI50 of 8.6 µM.

As to `Cc1cc(C)nc(NCC(O)COc2cccc3[nH]c4ccccc4c23)n1` (stereo not drawn) [Example 15, 1-(9H-carbazol-4-yloxy)-3-[(4,6-dimethylpyrimidin-2-yl)amino]propan-2-ol], the GI50 in the experiment with NCIH460 cells was > 100 µM; in the experiment on HCT116 cells, > 100 µM; in the experiment with MDAMB-231/U 251, 8 µM; in experiment [1], 8 µM. For the same compound, the IC (TGI) with NCIH460 cells, in the experiment with HCT116 cells and in the experiment with MDAMB-231/U 251 was > 100 µM throughout. Further, the CC50 in the experiment with NCIH460 cells and with MDAMB-231/U 251 was > 100 µM in each case. Further, in the experiment on HCT116 cells, the LC50 (concentration for 50% net cell kill relative to T0) is > 100 µM.

`OC(CNc1nc2ccccc2[nH]1)COc1cccc2[nH]c3ccccc3c12` (stereo not drawn) [Example 19, 1-(1H-Benzimidazol-2-ylamino)-3-(9H-carbazol-4-yloxy)propan-2-ol]: the GI50 in the experiment with NCIH460 cells amounted to 7.5 µM; in the experiment with HCT116 cells, 27 µM; with MDAMB-231/U 251, 51.5 µM; in experiment [1], 28.7 µM. Moreover, the IC (TGI) was determined as 35 µM in the experiment with NCIH460 cells, 52 µM with HCT116 cells and 67 µM in the experiment on MDAMB-231/U 251. The CC50 was found to be 70.5 µM with NCIH460 cells and 85 µM with MDAMB-231/U 251. Further, in the experiment on HCT116 cells, the LC50 (concentration for 50% net cell kill relative to T0) was 79 µM.

For `O=[N+]([O-])c1ccc(CN2CCN(CC(O)COc3cccc4[nH]c5ccccc5c34)CC2)o1` (stereo not drawn) [Example 26, 1-(9H-carbazol-4-yloxy)-3-{4-[(5-nitro-2-furyl)methyl]piperazin-1-yl}propan-2-ol], in the experiment on NCIH460 cells, the GI50 was determined as 2 µM, the IC (TGI) came out at 22 µM and the CC50 came out at 70 µM. Moreover, in the experiment with HCT116 cells, the GI50 was 30 µM, the IC (TGI) came out at 48 µM and the LC50 (concentration for 50% net cell kill relative to T0) is 68 µM. Also, in the experiment on MDAMB-231/U 251, the GI50 stood at 30 µM, the IC (TGI) is 85 µM and the CC50 is > 100 µM. For the same compound, in experiment [1], the GI50 is 20.7 µM.

Consider `O=[N+]([O-])c1ccc(CN2CCN(CC(O)COc3cccc4[nH]c5ccccc5c34)CC2)s1` (stereo not drawn) [Example 27, 1-(9H-carbazol-4-yloxy)-3-{4-[(5-nitro-2-thienyl)methyl]piperazin-1-yl}propan-2-ol], for which, in the experiment with NCIH460 cells, growth was halved (GI50) at 45 µM, the IC (TGI) is 98 µM and the CC50 is > 100 µM. In addition, in the experiment on HCT116 cells, the GI50 stood at 30 µM, the IC (TGI) was 60 µM and the LC50 (concentration for 50% net cell kill relative to T0) was found to be 90 µM. Moreover, in the experiment on MDAMB-231/U 251, the GI50 turned out to be 2.8 µM, the IC (TGI) amounted to 48 µM and the CC50 is > 100 µM. This compound also displayed a GI50 in experiment [1] of 25.9 µM.

As for `COc1cc(CN2CCN(CC(O)COc3cccc4[nH]c5ccccc5c34)CC2)cc(OC)c1` (stereo not drawn) [Example 30, 1-(9H-carbazol-4-yloxy)-3-[4-(3,5-dimethoxybenzyl)piperazin-1-yl]propan-2-ol], in the experiment on NCIH460 cells, it took 30 µM to inhibit growth by half (GI50), the IC (TGI) was determined as 60 µM and the CC50 amounted to 90 µM. Further, in the experiment with HCT116 cells, the concentration for 50% growth inhibition (GI50) came to 25 µM, the IC (TGI) came to 72 µM and the LC50 (concentration for 50% net cell kill relative to T0) worked out at 84 µM. In the experiment with MDAMB-231/U 251, the GI50 was 2.5 µM, the IC (TGI) amounted to 9 µM and the CC50 turned out to be 70 µM. Moreover, growth in experiment [1] was halved (GI50) at 19.2 µM.

Consider `OC(COc1cccc2[nH]c3ccccc3c12)CN1CCN(Cc2ccc(F)c(F)c2)CC1` (stereo not drawn) [Example 31, 1-(9H-carbazol-4-yloxy)-3-[4-(3,4-difluorobenzyl)piperazin-1-yl]propan-2-ol], for which, in the experiment on NCIH460 cells, it took 35 µM to inhibit growth by half (GI50), the IC (TGI) worked out at 90 µM and the CC50 came out at 65 µM. Besides, in the experiment on HCT116 cells, it took 38 µM to inhibit growth by half (GI50), the IC (TGI) is 66 µM and the LC50 (concentration for 50% net cell kill relative to T0) came out at 92 µM. Moreover, in the experiment on MDAMB-231/U 251, it took 4 µM to inhibit growth by half (GI50), the IC (TGI) turned out to be 7 µM and the CC50 was 10 µM. Further, the GI50 in experiment [1] amounted to 25.7 µM.

As to `Cc1cccc2sc(NC(=O)CN3CCN(CC(O)COc4cccc5[nH]c6ccccc6c45)CC3)nc12` (stereo not drawn) [Example 59, 2-{4-[3-(9H-carbazol-4-yloxy)-2-hydroxypropyl]-piperazin-1-yl}-N-(4-methyl-1,3-benzothiazol-2-yl)acetamide], in the experiment with NCIH460 cells, the GI50 stood at 9.5 µM, the IC (TGI) was > 100 µM and the CC50 was > 100 µM. In the experiment with HCT116 cells, the GI50 was > 100 µM, the IC (TGI) was > 100 µM and the LC50 (concentration for 50% net cell kill relative to T0) was > 100 µM. In the experiment with MDAMB-231/U 251, it took 47 µM to inhibit growth by half (GI50), the IC (TGI) was > 100 µM and the CC50 is > 100 µM. Further, the GI50 in experiment [1] was determined as 28.2 µM.

With `Cc1csc(NC(=O)CN2CCN(CC(O)COc3cccc4[nH]c5ccccc5c34)CC2)n1` (stereo not drawn) [Example 60, 2-{4-[3-(9H-carbazol-4-yloxy)-2-hydroxypropyl]-piperazin-1-yl}-N-(4-methyl-1,3-thiazol-2-yl)acetamide], in the experiment with NCIH460 cells, halving of growth (GI50) required 24 µM, the IC (TGI) was 61 µM and the CC50 was 85 µM. In the experiment on HCT116 cells, it took 26 µM to inhibit growth by half (GI50), the IC (TGI) turned out to be 62 µM and the LC50 (concentration for 50% net cell kill relative to T0) stood at 100 µM. In the experiment with MDAMB-231/U 251, the GI50 is > 100 µM, the IC (TGI) is > 100 µM and the CC50 was > 100 µM. Moreover, in experiment [1], halving of growth (GI50) required 25 µM.

Broadly, the GI50 is the concentration that inhibits growth by half. A lower GI50 goes with greater sensitivity of the cells.

The values are drawn from US7786142B2, “Heterocyclic compounds as pSTAT3/IL-6 inhibitors” (Orchid Research Laboratories, Ltd., priority 2005, dated 2010).
